Test system: 475296-252-R-J1-PDC spheroid viability
Assay: Anticancer human tumor 475296-252-R-J1-PDC patient-derived rectal carcinoma cell line growth inhibition [PI3K]
Details: spheroids with HUVEC and MSC; for IC50: curve of first compound; for viability, T/C: stronger effect = lower value
Text: Combinatorial screen of targeted agents with the PI3K inhibitors inavolisib, alpelisib, duvelisib, and copanlisib in multi-cell type tumor spheroids
A high-throughput screen of multi-cell type tumor spheroids was designed to identify active combinations of targeted small molecules and PI3K pathway inhibitors. Complex spheroids include a stromal component modeled by human endothelial cells (HUVEC) and fibroblasts modeled by human mesenchymal stem cells (MSCs). The concentration ranges selected for each drug and investigational agent were based upon clinically achievable concentrations if the clinical Cmax of the agent was known.
Compounds. The drugs and investigational agents: inavolisib (NSC800729), alpelisib (NSC765974), duvelisib (NSC772469), copanlisib (NSC816437), ipatasertib (NSC767898), afuresertib (NSC778305), talazoparib (NSC767125), sapanisertib (NSC764658), selumetinib (NSC741078), tovorafenib (DAY101, NSC766906), vemurafenib (NSC761431), ravoxertinib (NSC781343), sotorasib (NSC818433), MRTX1133 (NSC 836407), abemaciclib (NSC 768073), palbociclib (NSC758247), venetoclax (NSC 766270), SY5609 (NSC837396), enzalutamide (NSC755605), and darolutamide (NSC825331), were obtained from the National Cancer Institute (NCI) Developmental Therapeutics Program Chemical Repository. The FDA-approved anticancer drug set is available from the NCI Developmental Therapeutics Program. […] The stock solutions were prepared in dimethyl sulfoxide (DMSO, Sigma-Aldrich, St. Louis, MO, cat. D2650) at 800-fold the tested concentration and stored at -70 degrees C prior to their use. All drugs and investigational agents were tested over a range starting from a high concentration at or near the clinical Cmax and decreasing in half-log increments. If the clinical Cmax for an agent had not been determined, the highest concentration tested was 10 microM.
Cell Culture. All cells were maintained in an incubator at 37 degrees C and 5% CO2 with 95% humidity. The PDC lines were cultured according to standard operating procedures established by the NCI PDMR (https://pdmr.cancer.gov/sops/default.htm). All PDCs were thawed and cultured in Matrigel-coated flasks prepared with a working solution of 1X Ham's F-12 nutrient mix, without supplementation (Invitrogen, Waltham, MA, cat. 11765054), 100 U/mL penicillin-streptomycin (Invitrogen, cat. 15140122), and 2.5% Matrigel (Corning Inc., Corning, NY, cat. 354248) for the first three passages. The 354836-022-R-J1-PDC, 475296-252-R-J1-PDC, and 997726-040-R-J2-PDC lines were cultured in 6A media, which includes advanced DMEM/F-12 (Thermo Fisher Scientific, cat. 12634028), 10 mM HEPES (Thermo Fisher Scientific, cat. 15630080), 1X GlutaMAX supplement (Thermo Fisher Scientific, cat. 35050061), 0.1 mg/mL primocin (InvivoGen, San Diego, CA, cat. ant-pm-2), 10% defined fetal bovine serum, heat inactivated (HyClone Laboratories Inc., Logan, UT, cat. SH30070.03HI), 50% L-WRN conditioned media (ATCC, cat. CRL-3276), 1.25 mM N-Acetyl-L-cysteine (Sigma-Aldrich, cat. A9165), 10 mM nicotinamide (Sigma-Aldrich, cat. N0636), 1X B-27 supplement (Thermo Fisher Scientific, cat. 17504044), 1X N-2 supplement (Thermo Fisher Scientific, cat. 17502048), and 10 microM Y-27632 dihydrochloride (Tocris Bioscience, Bristol, United Kingdom, cat. 1254). The 624824-186-R-J2-PDC line was cultured in 6C/Colon 1B media, which includes all 6A media components plus 50 ng/mL human EGF recombinant protein (Thermo Fisher Scientific, cat. PHG0311). […]

[1] = second compound 0.00316 µM, first compound 0.0316 µM
[2] = second compound 0.00316 µM, first compound 0.1 µM
[3] = second compound 0.01 µM, first compound 0.0316 µM
[4] = second compound 0.01 µM, first compound 0.1 µM
[5] = second compound 0.0316 µM, first compound 0.0316 µM
[6] = second compound 0.0316 µM, first compound 0.1 µM
[7] = second compound 0.1 µM, first compound 0.0316 µM
[8] = second compound 0.1 µM, first compound 0.1 µM
[9] = second compound 0.316 µM, first compound 0.0316 µM
[10] = second compound 0.316 µM, first compound 0.1 µM
[11] = second compound 1 µM, first compound 0.0316 µM
[12] = second compound 1 µM, first compound 0.1 µM
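Also: spheroids exposed to agents for seven days before readout.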

CC(C)n1nc(-c2ccc3oc(N)nc3c2)c2c(N)ncnc21 + CC(Nc1ccc2c(c1)OCCn1cc(N3C(=O)OCC3C(F)F)nc1-2)C(N)=O
IC50 (second compound 0.00316 µM): > 0.1 µM
IC50 (second compound 0.01 µM): > 0.1 µM
IC50 (second compound 0.0316 µM): > 0.1 µM
IC50 (second compound 0.1 µM): > 0.1 µM
IC50 (second compound 0.316 µM): > 0.1 µM
IC50 (second compound 1 µM): > 0.1 µM
viability, T/C (second compound 0.00316 µM, first compound 0.000316 µM): 91%
viability, T/C (second compound 0.00316 µM, first compound 0.001 µM): 83.2%
viability, T/C (second compound 0.00316 µM, first compound 0.00316 µM): 89.2%
viability, T/C (second compound 0.00316 µM, first compound 0.01 µM): 73.2%
viability, T/C [1]: 74.9%
viability, T/C [2]: 58.7%
viability, T/C (second compound 0.01 µM, first compound 0.000316 µM): 97.3%
viability, T/C (second compound 0.01 µM, first compound 0.001 µM): 81.5%
viability, T/C (second compound 0.01 µM, first compound 0.00316 µM): 95.1%
viability, T/C (second compound 0.01 µM, first compound 0.01 µM): 85.7%
viability, T/C [3]: 82.3%
viability, T/C [4]: 61.4%
viability, T/C (second compound 0.0316 µM, first compound 0.000316 µM): 85.5%
viability, T/C (second compound 0.0316 µM, first compound 0.001 µM): 113%
viability, T/C (second compound 0.0316 µM, first compound 0.00316 µM): 94.8%
viability, T/C (second compound 0.0316 µM, first compound 0.01 µM): 89.8%
viability, T/C [5]: 77.7%
viability, T/C [6]: 58%
viability, T/C (second compound 0.1 µM, first compound 0.000316 µM): 83.5%
viability, T/C (second compound 0.1 µM, first compound 0.001 µM): 88%
viability, T/C (second compound 0.1 µM, first compound 0.00316 µM): 92%
viability, T/C (second compound 0.1 µM, first compound 0.01 µM): 88.6%
viability, T/C [7]: 77%
viability, T/C [8]: 59.6%
viability, T/C (second compound 0.316 µM, first compound 0.000316 µM): 83.8%
viability, T/C (second compound 0.316 µM, first compound 0.001 µM): 89%
viability, T/C (second compound 0.316 µM, first compound 0.00316 µM): 88.8%
viability, T/C (second compound 0.316 µM, first compound 0.01 µM): 82.7%
viability, T/C [9]: 74%
viability, T/C [10]: 58.7%
viability, T/C (second compound 1 µM, first compound 0.000316 µM): 87.4%
viability, T/C (second compound 1 µM, first compound 0.001 µM): 83.3%
viability, T/C (second compound 1 µM, first compound 0.00316 µM): 83%
viability, T/C (second compound 1 µM, first compound 0.01 µM): 85.8%
viability, T/C [11]: 71.1%
viability, T/C [12]: 55.2%

CCCS(=O)(=O)Nc1ccc(F)c(C(=O)c2c[nH]c3ncc(-c4ccc(Cl)cc4)cc23)c1F + CC(Nc1ccc2c(c1)OCCn1cc(N3C(=O)OCC3C(F)F)nc1-2)C(N)=O
IC50 (second compound 0.00316 µM): > 10 µM
IC50 (second compound 0.01 µM): > 10 µM
IC50 (second compound 0.0316 µM): > 10 µM
IC50 (second compound 0.1 µM): > 10 µM
IC50 (second compound 0.316 µM): > 10 µM
IC50 (second compound 1 µM): > 10 µM
viability, T/C [1]: 84.5%
viability, T/C [2]: 84.3%
viability, T/C (second compound 0.00316 µM, first compound 0.316 µM): 81.7%
viability, T/C (second compound 0.00316 µM, first compound 1 µM): 85.2%
viability, T/C (second compound 0.00316 µM, first compound 3.16 µM): 92.6%
viability, T/C (second compound 0.00316 µM, first compound 10 µM): 101%
viability, T/C [3]: 102%
viability, T/C [4]: 89%
viability, T/C (second compound 0.01 µM, first compound 0.316 µM): 90.4%
viability, T/C (second compound 0.01 µM, first compound 1 µM): 83.2%
viability, T/C (second compound 0.01 µM, first compound 3.16 µM): 82.6%
viability, T/C (second compound 0.01 µM, first compound 10 µM): 91.7%
viability, T/C [5]: 97.5%
viability, T/C [6]: 94.8%
viability, T/C (second compound 0.0316 µM, first compound 0.316 µM): 96.8%
viability, T/C (second compound 0.0316 µM, first compound 1 µM): 89.8%
viability, T/C (second compound 0.0316 µM, first compound 3.16 µM): 75.9%
viability, T/C (second compound 0.0316 µM, first compound 10 µM): 88.3%
viability, T/C [7]: 83.8%
viability, T/C [8]: 96.6%
viability, T/C (second compound 0.1 µM, first compound 0.316 µM): 89.6%
viability, T/C (second compound 0.1 µM, first compound 1 µM): 84.5%
viability, T/C (second compound 0.1 µM, first compound 3.16 µM): 81.4%
viability, T/C (second compound 0.1 µM, first compound 10 µM): 81.9%
viability, T/C [9]: 77.4%
viability, T/C [10]: 94.5%
viability, T/C (second compound 0.316 µM, first compound 0.316 µM): 89.5%
viability, T/C (second compound 0.316 µM, first compound 1 µM): 79.1%
viability, T/C (second compound 0.316 µM, first compound 3.16 µM): 81.4%
viability, T/C (second compound 0.316 µM, first compound 10 µM): 70.4%
viability, T/C [11]: 90.7%
viability, T/C [12]: 92.6%
viability, T/C (second compound 1 µM, first compound 0.316 µM): 80.4%
viability, T/C (second compound 1 µM, first compound 1 µM): 90.3%
viability, T/C (second compound 1 µM, first compound 3.16 µM): 83.1%
viability, T/C (second compound 1 µM, first compound 10 µM): 72.7%

From PubChem BioAssay AID1963980 (Molecular Pharmacology Branch, DTP, NCI, 2024)
